Experimental data reported in ChEMBL document CHEMBL3885861, “Open TG-GATES”.

Species on record: Rattus norvegicus
Experiment: Open TG-GATES - Regimen: Daily Repeat
Format: toxicity, organism-based, Sprague-Dawley
Design: regimen Daily Repeat, gender Male, age 6 weeks
Conditions: in vivo, po, 30 mg/kg, route gavage, dose level Low; for APTT / Bas / Eos / Fbg / Hb / Ht / Lym / MCH / MCHC / MCV / Mono / Neu / PT / Plat / RBC / Ret / WBC: tissue Blood; for KIDNEY_L / KIDNEY_R / KIDNEY_TOTAL: tissue Kidney; for LIVER: tissue Liver; for A/G / ALP / ALT / AST / BUN / CRE / Ca / Cl / DBIL / GLC / IP / K / LDH / Na / PL / RALB / TBIL / TC / TG / TP / gamma-GTP: tissue Plasma

## O=C(O)COc1nn(Cc2ccccc2)c2ccccc12 [BENDAZAC]
72 h, time 3 day
  TERMINAL_BW: 236.5 g
  APTT: 17 s
  Bas: 0%
  Eos: 1.4%
  Fbg: 215.2 mg/dL
  Hb: 13.4 g/dL
  Ht: 40.6%
  Lym: 79.2%
  MCH: 21.1 pg
  MCHC: 33%
  MCV: 63.9 fL
  Mono: 6.6%
  Neu: 12.8%
  PT: 11.9 s
  Plat: 128 x10_4/uL
  RBC: 636 x10_4/ul
  Ret: 6.9%
  WBC: 98.4 x10_2/uL
  KIDNEY_L: 1 g
  KIDNEY_R: 1 g
  KIDNEY_TOTAL: 2.1 g
  LIVER: 11.9 g
  A/G: 2.2
  ALP: 891 IU/L
  ALT: 36.6 IU/L
  AST: 66.6 IU/L
  BUN: 17.2 mg/dL
  CRE: 0.6 mg/dL
  Ca: 11 mg/dL
  Cl: 103 meq/L
  DBIL: 0.018 mg/dL
  GLC: 205.2 mg/dL
  IP: 7.5 mg/dL
  K: 4.5 meq/L
  LDH: 128 IU/L
  Na: 140.4 meq/L
  PL: 149.8 mg/dL
  RALB: 3.9 g/dL
  TBIL: 0.4 mg/dL
  TC: 74.4 mg/dL
  TG: 99.6 mg/dL
  TP: 5.7 g/dL
  gamma-GTP: 0.8 IU/L
[…], time 7 day
  TERMINAL_BW: 260.1 g
  APTT: 17.3 s
  Bas: 0%
  Eos: 1.2%
  Fbg: 214.6 mg/dL
  Hb: 14.1 g/dL
  Ht: 41.5%
  Lym: 78.4%
  MCH: 21.2 pg
  MCHC: 34%
  MCV: 62.4 fL
  Mono: 6.8%
  Neu: 14%
  PT: 11.7 s
  Plat: 131.9 x10_4/uL
  RBC: 665.6 x10_4/ul
  Ret: 6.1%
  WBC: 109.2 x10_2/uL
  KIDNEY_L: 1.1 g
  KIDNEY_R: 1.1 g
  KIDNEY_TOTAL: 2.2 g
  LIVER: 12.5 g
  A/G: 2.1
  ALP: 930 IU/L
  ALT: 32.8 IU/L
  AST: 68.4 IU/L
  BUN: 18.6 mg/dL
  CRE: 0.5 mg/dL
  Ca: 10.9 mg/dL
  Cl: 104.8 meq/L
  DBIL: 0 mg/dL
  GLC: 214.2 mg/dL
  IP: 7.2 mg/dL
  K: 4.5 meq/L
  LDH: 94.4 IU/L
  Na: 142 meq/L
  PL: 145.4 mg/dL
  RALB: 3.9 g/dL
  TBIL: 0.4 mg/dL
  TC: 72 mg/dL
  TG: 114.6 mg/dL
  TP: 5.7 g/dL
  gamma-GTP: 0.8 IU/L
[…], time 14 day
  TERMINAL_BW: 298.7 g
  APTT: 17.1 s
  Bas: 0%
  Eos: 0.6%
  Fbg: 228.2 mg/dL
  Hb: 14.9 g/dL
  Ht: 44%
  Lym: 85.2%
  MCH: 20.6 pg
  MCHC: 33.8%
  MCV: 61 fL
  Mono: 3.4%
  Neu: 10.4%
  PT: 11 s
  Plat: 121.3 x10_4/uL
  RBC: 720.6 x10_4/ul
  Ret: 2.8%
  WBC: 112.1 x10_2/uL
  KIDNEY_L: 1.2 g
  KIDNEY_R: 1.2 g
  KIDNEY_TOTAL: 2.5 g
  LIVER: 13.5 g
  A/G: 1.7
  ALP: 683.4 IU/L
  ALT: 31.6 IU/L
  AST: 62.6 IU/L
  BUN: 18.4 mg/dL
  CRE: 0.5 mg/dL
  Ca: 10.5 mg/dL
  Cl: 105.8 meq/L
  DBIL: 0.03 mg/dL
  GLC: 185.4 mg/dL
  IP: 6.9 mg/dL
  K: 4.6 meq/L
  LDH: 131.8 IU/L
  Na: 140.8 meq/L
  PL: 154.2 mg/dL
  RALB: 3.8 g/dL
  TBIL: 0.3 mg/dL
  TC: 73.2 mg/dL
  TG: 125.8 mg/dL
  TP: 6 g/dL
  gamma-GTP: 1.4 IU/L
[…], time 28 day
  TERMINAL_BW: 393.4 g
  APTT: 17.2 s
  Bas: 0%
  Eos: 1.2%
  Fbg: 217.6 mg/dL
  Hb: 15.4 g/dL
  Ht: 45.1%
  Lym: 77.4%
  MCH: 19.3 pg
  MCHC: 34.1%
  MCV: 56.7 fL
  Mono: 5.4%
  Neu: 15.4%
  PT: 12 s
  Plat: 119.3 x10_4/uL
  RBC: 796.6 x10_4/ul
  Ret: 2.3%
  WBC: 105.4 x10_2/uL
  KIDNEY_L: 1.5 g
  KIDNEY_R: 1.5 g
  KIDNEY_TOTAL: 2.9 g
  LIVER: 16.7 g
  A/G: 1.5
  ALP: 780.4 IU/L
  ALT: 30.4 IU/L
  AST: 62.4 IU/L
  BUN: 17.6 mg/dL
  CRE: 0.5 mg/dL
  Ca: 10 mg/dL
  Cl: 104.2 meq/L
  DBIL: 0.006 mg/dL
  GLC: 192.2 mg/dL
  IP: 6 mg/dL
  K: 4.4 meq/L
  LDH: 90 IU/L
  Na: 139.6 meq/L
  PL: 147.6 mg/dL
  RALB: 3.7 g/dL
  TBIL: 0.3 mg/dL
  TC: 68.2 mg/dL
  TG: 169 mg/dL
  TP: 6.3 g/dL
  gamma-GTP: 1.6 IU/L
